Results as given in patent publication US6642020B2, “Process for preparing cephalosporin derivatives” (Bioferma Murcia S.A., priority 2001, dated 2003).

Test: Stability of cephalosporin C solution without thiol on heating
Format: physicochemical
Conditions: aqueous cephalosporin C solution without the thiol, 80° C.

CC(=O)OCC1=C(C(=O)O)N2C(=O)C(NC(=O)CCC[C@@H](N)C(=O)O)[C@H]2SC1 (stereo partly drawn) [cephalosporin C, 3-acetoxymethyl-7-(D-5-amino-5-carboxypentan amido)-ceph-3-em-4-carboxylic acid]
time to complete degradation (β-lactam ring degradation): ≤ 40 min
